From patent US20050090551A1, “Therapeutic use of methionine for the treatment or prevention of mucositis” (Board of Trustees of Southern Illinois University, priority 2003, published 2005)
Where a name gives a salt, the structure may show the parent alone.

Experiments:
[1] = system: NHIK 3025 in vitro human uterine cervix carcinoma in situ cancer cells; conditions: preadministration of methionine, presumably a racemic mixture; cited from earlier work
[2] = system: CDDP nephrotoxicity; conditions: literature reports; cited from earlier work
[3] = system: CDDP anti-tumor action; conditions: literature reports; cited from earlier work
[4] = system: CDDP-induced weight loss; conditions: literature reports; cited from earlier work
[5] = system: male Wistar rats; assay: Auditory Brainstem Testing (ABR) thresholds in CDDP-treated rats; format: in vivo, rat
[6] = system: male Wistar rats; conditions: 75, 150 or 300 mg/kg D-methionine prior to 16 mg/kg CDDP
[7] = system: male Wistar rats
[8] = system: male Wistar rats; remark: listed apart in the source
[9] = system: Human salivary gland epithelial cells; conditions: various concentrations of D-methionine (1.0-0.1 mg/ml) six hours prior to 10 Gy; after 24 Hrs
Description: One set was untreated as a control and another was irradiated with 10 Gy the following morning.

[10] = system: mice; conditions: 6 Gy/day for five days
Protocol: The experiment was conducted using a mouse model of radiation-induced lip erythema. Four groups of mice (n=5) were used. The first group (Group A) was an untreated, control group. The second group (Group B) was irradiated with ionizing radiation (6 Gy/day) for 5 days.

[11] = system: tumor bearing animals; conditions: pre or post treatment, 150 mg/Kg x5, i.p.
[12] = system: Walker 256 carcinosarcoma in the rat; conditions: Jones and Basinger; cited from earlier work
[13] = system: CDDP ototoxicity; conditions: animals; literature reports; cited from earlier work
[14] = system: patients; conditions: cited from earlier work
[15] = system: hamsters; conditions: Church et al; cited from earlier work

CSCC[C@H](N)C(=O)O (racemic) [methionine]
effect on CDDP cytotoxicity [1]: sensitized

CSc1ncccc1C(=O)O [2-(methylthio)nicotinic acid]
CDDP nephroprotection [2]: does not provide nephroprotection

O=C(O)CCCC[C@@H]1SC[C@@H]2NC(=O)N[C@@H]21 [Biotin]
CDDP nephroprotection [2]: good CDDP nephroprotection
effect on CDDP anti-tumor action [3]: inhibits anti-tumor activity

C[C@H](CS)C(=O)N1CCC[C@H]1C(=O)O [Captropril]
CDDP nephroprotection [2]: protects against CDDP nephrotoxicity

CC1=C(C(=O)O)N2C(=O)[C@@H](NC(=O)[C@H](N)c3ccccc3)[C@H]2SC1 [Cephalexin]
protection against CDDP-induced weight loss [4]: protects against CDDP-induced kidney dysfunction and weight loss

CSCC[C@@H](N)C(=O)O [D-methionine]
animals with complete otoprotection (no significant ABR threshold shift for any stimulus) ([5]; 75 mg/kg D-methionine i.p. 30 minutes prior to 16 mg/kg CDDP, 3 days later): 2/5
animals with complete otoprotection (no significant ABR threshold shift for any stimulus) ([5]; 150 mg/kg D-methionine i.p. 30 minutes prior to 16 mg/kg CDDP, 3 days later): 3/5
animals with complete otoprotection for all stimulus conditions ([5]; 300 mg/kg D-methionine i.p. 30 minutes prior to 16 mg/kg CDDP, group of 5, 3 days later): 5
post-test ABR thresholds vs treated control group, all stimuli ([5]; any level of D-methionine (75, 150, 300 mg/kg) prior to 16 mg/kg CDDP): significantly lower ABR thresholds than the treated control group
outer hair cell findings, middle and basal turns [6]: only the treated control group showed significantly different findings from the untreated control group
weight loss vs treated control group ([7]; 300 mg/kg D-methionine prior to 16 mg/kg CDDP, 3 days): significantly less than that in the treated control group
CDDP-induced weight loss, dose dependence ([7]; 75, 150, 300 mg/kg D-methionine prior to 16 mg/kg CDDP): diminished as D-methionine dosing increased
alopecia: coat and hair loss vs control group animals ([8]; D-methionine prior to 16 mg/kg CDDP): significantly less hair loss
animals surviving to the end of the study period ([8]; any level of D-methionine prior to 16 mg/kg CDDP): 15/15
neuroprotection: activity and coordination vs surviving treated controls ([8]; morning of the third day, D-methionine prior to 16 mg/kg CDDP): noticeably more lively, active, and coordinated
apoptosis (cells having an apoptotic phenotype) [9]: about 20%
lip erythema, post-treatment ([10]; 150 mg/kg one hour after irradiation): prevented the occurrence of lip erythema
lip erythema, pre-treatment ([10]; 150 mg/kg six hours prior to irradiation): prevented the occurrence of lip erythema
interference with antitumor activity of ionizing radiation [11]: did not interfere with antitumor activity of ionizing radiation
CDDP nephroprotection [2]: highly effective CDDP nephroprotection
effect on CDDP anti-tumor action [3]: without decreasing anti-tumor action
effect on CDDP anti-tumor action [12]: does not inhibit CDDP anti-tumor action

CCOC(=O)[C@@H](N)CS [Ethyl-L-cysteinate]
CDDP nephroprotection [2]: exacerbate CDDP nephrotoxicity

CSCC[C@H](N)C(N)=O [L-methioninamide]
CDDP nephroprotection [2]: excellent CDDP nephroprotection
effect on CDDP anti-tumor action [3]: impairs CDDP anti-tumor action

CC(S)C(=O)NCC(=O)O (stereo not drawn) [N-(2-mercapto-propionyl)glycine]
CDDP nephroprotection [2]: exacerbate CDDP nephrotoxicity

O=S([O-])([O-])=S.[Na+].[Na+] [STS, sodium thiosulfate]
CDDP nephroprotection [2]: reduces CDDP nephrotoxicity and ototoxicity
effect on CDDP anti-tumor action [3]: reduces the latter's tumoricidal action
CDDP otoprotection [13]: good CDDP otoprotection

Nc1ccc(S(=O)(=O)Nc2nccs2)cc1 [Sulfathiazole]
CDDP nephroprotection [2]: provides protection against CDDP nephrotoxicity
protection against CDDP-induced weight loss [4]: not weight loss

NCCCNCCSP(=O)(O)O [WR2721]
CDDP nephroprotection [2]: excellent CDDP nephroprotection
patients with mild to severe hearing loss ([14]; WR2721 prior to CDDP, Glover et al.): 20 of 36
incidence of significant hearing threshold shift ([14]; patients pretreated with WR2721 prior to CDDP, Rubin et al.): 45%
protection from ototoxicity or mortality [15]: no WR2721 protection from ototoxicity or mortality

CO[C@@]1(NC(=O)Cc2cccs2)C(=O)N2C(C(=O)O)=C(COC(N)=O)CS[C@@H]21 [cefoxitin]
CDDP nephroprotection [2]: does not provide nephroprotection
protection against CDDP-induced weight loss [4]: some protection against CDDP-induced weight loss

CC1(C)S[C@@H]2[C@H](NC(=O)Cc3ccccc3)C(=O)N2[C@H]1C(=O)[O-].[Na+] [sodium salt of penicillin G, penicillin G]
CDDP nephroprotection [2]: does not protect against CDDP nephrotoxicity or weight loss
protection against CDDP-induced weight loss [4]: does not protect against CDDP nephrotoxicity or weight loss

Cc1ncc(C[n+]2csc(CCO)c2C)c(N)n1 [thiamine-HCl]
CDDP nephroprotection [2]: does not protect against cisplatin nephrotoxicity or weight loss
protection against CDDP-induced weight loss [4]: does not protect against cisplatin nephrotoxicity or weight loss
